Data as given in ChEMBL document CHEMBL4706683 (J Med Chem, 2021).
Calls of active or inactive are those of the source. No cut-off for these calls is given here.

Experiments:
[1] = Cmax in Balb/c mouse at 5 mg/kg, ip administered as single dose measured upto 24 hrs by LC-MS/MS analysis; assay type: ADME, organism-based; set-up: route intraperitoneal, dose 5 mg/kg, time <=24; details: in vivo
[2] = Toxicity in Balb/c mouse infected with sporozoites liver stage Plasmodium berghei assessed as animal death at 30 mg/kg, ip administered as single dose and measured after 2 hrs; assay type: organism-based; details: in vivo
Plasmodium falciparum [3] = assay: Antiplasmodial activity against Plasmodium falciparum GB4 infected in human erythrocytes assessed as reduction in parasite growth incubated for 72 hrs by Giemsa staining based light microscopic method; assay type: functional, organism-based; details: GB4, Erythrocyte
Plasmodium falciparum [4] = assay: (§1) Antimalarial activity against synchronized schizont stage transgenic Plasmodium falciparum 3D7 with C-terminal 3xTY1-fused HDAC2 knockdown assessed as parasite growth inhibition pretreated with glucosamine followed by compound treatment and incubated for 4 hrs followed by compound washout for thrice and subsequent culturing for 68 hrs by SYBR Green 1 staining based analysis; assay type: functional, organism-based
Plasmodium falciparum [5] = assay: Antiplasmodial activity against artemisinin-resistant Plasmodium falciparum 6320 assessed as reduction in parasite survival at 700 nM incubated for 6 hrs followed by compound washout thrice and further cultured in compound free medium for 66 hrs by RSA; assay type: functional, organism-based
HEK-293T = assay: Cytotoxicity against human HEK293T cells assessed as reduction in cell viability incubated for 72 hrs by cell titer glo assay; assay type: cell-based
Plasmodium falciparum [6] = assay: Antiplasmodial activity against synchronized ring stage Plasmodium falciparum 3D7 infected in human erythrocytes assessed as new ring stage formation at 10 times IC50 incubated for 12 hrs followed by compound washout and measured at 50 hrs by […] analysis; assay type: functional, organism-based; details: Erythrocyte
Plasmodium falciparum [7] = assay: Antiplasmodial activity against Plasmodium falciparum C2A infected in human erythrocytes assessed as reduction in parasite growth incubated for 72 hrs by Giemsa staining based light microscopic method; assay type: functional, organism-based; details: Erythrocyte
Plasmodium falciparum [8] = assay: as §1, with “glmS-fused” for “3xTY1-fused”; assay type: functional, organism-based
Plasmodium falciparum [9] = assay: Antiplasmodial activity against schizont stage Plasmodium falciparum 3D7 infected in human erythrocytes assessed as reduction in parasitemia at 10 times IC50 incubated for 12 hrs followed by compound washout and measured at 96 hrs post infection by […] analysis; assay type: functional, organism-based; details: Erythrocyte
Plasmodium falciparum [10] = assay: Antiplasmodial activity against artemisinin-resistant ring stage Plasmodium falciparum 6320 infected in human erythrocytes assessed as reduction in parasite growth incubated for 72 hrs by Giemsa staining based light microscopic method; assay type: functional, organism-based; details: Plasmodium falciparum, 6320, Erythrocyte
[11] = Inhibition of recombinant full length C-terminal His/FLAG-tagged Plasmodium falciparum HDAC1 expressed in baculovirus infected sf9 insect cells using fluorogenic […] as substrate preincubated for 1.5 hrs followed by substrate addition and measured after 30 mins by HDAC-GloI/II assay
[12] = Apparent clearance during terminal phase in Balb/c mouse at 5 mg/kg, ip administered as single dose measured upto 24 hrs by LC-MS/MS analysis; assay type: ADME, organism-based; details: Balb/c, in vivo, read-out: CLz/F (converted)
[13] = Apparent volume of distribution during terminal phase in Balb/c mouse at 10 mg/kg, po administered as single dose measured upto 24 hrs by LC-MS/MS analysis; assay type: ADME, organism-based; details: in vivo
[14] = Apparent volume of distribution during terminal phase in Balb/c mouse at 5 mg/kg, ip administered as single dose measured upto 24 hrs by LC-MS/MS analysis; assay type: ADME, organism-based; details: Balb/c, in vivo, read-out: Vz/F
Plasmodium falciparum [15] = assay: Antiplasmodial activity against synchronized ring stage Plasmodium falciparum Dd2 infected in human erythrocytes assessed as reduction in parasite growth incubated for 72 hrs by Giemsa staining based light microscopic method; assay type: functional, organism-based; details: Dd2, Erythrocyte
Plasmodium berghei = assay: Antiplasmodial activity against liver stage Plasmodium berghei infected in Balb/c mouse assessed as reduction in parasitemia at 30 mg/kg, ip administered as single dose by microscopic analysis; assay type: functional, organism-based
Plasmodium falciparum [16] = assay: as §1, with “HDAC1” for “HDAC2”; assay type: functional, organism-based
HepG2 = assay: Cytotoxicity against human HepG2 cells assessed as reduction in cell viability incubated for 72 hrs by cell titer glo assay; assay type: cell-based; details: HepG2, 72 h
Plasmodium falciparum [17] = assay: Antiplasmodial activity against synchronized ring stage Plasmodium falciparum 3D7 infected in human erythrocytes assessed as reduction in parasite growth incubated for 72 hrs by Giemsa staining based light microscopic method; assay type: functional, organism-based; details: 3D7, Erythrocyte
[18] = Toxicity in Balb/c mouse infected with blood stage Plasmodium yoelii assessed as animal death at 10 to 30 mg/kg, ip QD for 5 consecutive days and measured on day 6; assay type: organism-based; details: in vivo, 120 h, dose 10-30 mg/kg, time 5 day
Plasmodium falciparum [19] = assay: Antiplasmodial activity against artemisinin-resistant Plasmodium falciparum 6218 assessed as reduction in parasite survival at 700 nM incubated for 6 hrs followed by compound washout thrice and further cultured in compound free medium for 66 hrs by RSA; assay type: functional, organism-based
[20] = Clearance in mouse liver microsomes incubated upto 45 mins in presence of NADPH by LC-MS/MS analysis; assay type: ADME, Microsome; details: read-out: CLH
Plasmodium yoelii = assay: Antiplasmodial activity against blood stage Plasmodium yoelii infected in Balb/c mouse assessed as reduction in parasitemia at 10 to 30 mg/kg, ip QD for 5 consecutive days and measured on day 20 by microscopic analysis; assay type: functional, organism-based; details: dose 10-30 mg/kg, time 5.0 day
[21] = AUC (0 to infinity) in Balb/c mouse at 10 mg/kg, po administered as single dose measured upto 24 hrs by LC-MS/MS analysis; assay type: ADME, organism-based; set-up: route oral, dose 10 mg/kg, time <=24; details: in vivo
Plasmodium falciparum [22] = assay: Inhibition of Plasmodium falciparum HDAC assessed as hyperacetylation of histone H3 at 20 times IC50 incubated for 4 hrs by Western blot analysis
[23] = Toxicity in Balb/c mouse infected with blood stage Plasmodium yoelii assessed as recrudescence at 10 to 30 mg/kg, ip QD for 5 consecutive days and measured on day 20; assay type: organism-based; details: in vivo, 120 h, dose 10-30 mg/kg, time 5 day
[24] = Selectivity index, ratio of IC50 for cytotoxicity against human HEK293T cells assessed to IC50 for antiplasmodial activity against synchronized ring stage Plasmodium falciparum 3D7 infected in human erythrocytes; assay type: toxicity, cell-based; details: read-out: Ratio IC50
Plasmodium falciparum [25] = assay: Antiplasmodial activity against artemisinin-resistant Plasmodium falciparum 6218 infected in human erythrocytes assessed as reduction in parasite growth incubated for 72 hrs by Giemsa staining based light microscopic method; assay type: functional, organism-based; details: Plasmodium falciparum, 6218, Erythrocyte
Plasmodium falciparum [26] = assay: Antiplasmodial activity against Plasmodium falciparum CP286 infected in human erythrocytes assessed as reduction in parasite growth incubated for 72 hrs by Giemsa staining based light microscopic method; assay type: functional, organism-based; details: CP286, Erythrocyte
[27] = Half life in mouse liver microsomes incubated upto 45 mins in presence of NADPH by LC-MS/MS analysis; assay type: ADME, Microsome
[28] = Selectivity index, ratio of IC50 for cytotoxicity against human HepG2 cells assessed to IC50 for antiplasmodial activity against synchronized ring stage Plasmodium falciparum 3D7 infected in human erythrocytes; assay type: toxicity, cell-based; details: read-out: Ratio IC50

For `Cl.Cn1cc(CNCC2CCN(c3ncc(C(=O)NO)cn3)CC2)c2ccccc21` [QUISINOSTAT HYDROCHLORIDE], the Cmax [1] was 88.7 ng/mL, the Activity [2] was “Toxic” and the IC50 (Plasmodium falciparum [3]) was 1.7 nM. The IC50 (Plasmodium falciparum [4]) was 17.2 nM, the Activity (Plasmodium falciparum [5]) was “Active” and the IC50 (HEK-293T) was 48 nM. The Activity (Plasmodium falciparum [6]) was “Active”, the IC50 (Plasmodium falciparum [7]) was 2.53 nM and the IC50 (Plasmodium falciparum [8]) was 23.7 nM. For the same compound, the Activity (Plasmodium falciparum [9]) was “Active”, the IC50 (Plasmodium falciparum [10]) was 1.62 nM and the IC50 [11] was 0.003 nM. It also gave a CL/F [12] of 462 mL/min/kg, a Vz/F [13] of 4172 L/kg and a Vd/F [14] of 245 L/kg. The IC50 (Plasmodium falciparum [15]) was 7.09 nM, the Activity (Plasmodium berghei) was “inactive” and the IC50 (Plasmodium falciparum [16]) was 12.4 nM. The IC50 (HepG2) was 42 nM, the IC50 (Plasmodium falciparum [17]) was 5.2 nM and the Activity [18] was “Toxic”. For the same compound, the Activity (Plasmodium falciparum [19]) was “Active”, the CLint scaled [20] was 410 mL/min/kg and the Activity (Plasmodium yoelii) was “inactive”. For the same compound, the AUC(0-inf) [21] was 5.98 ng·h/mL and the inhibition (Plasmodium falciparum [22]) was “Active”.
With `Cl.Cn1cc(CN2CCC3(CCN(c4ncc(C(=O)NO)cn4)CC3)C2)c2ccncc21` the IC50 (Plasmodium falciparum [3]) was 4.4 nM, the IC50 (HEK-293T) was 537 nM and the Activity [23] was “Toxic”. It also gave a selectivity ratio [24] of 180, an IC50 (Plasmodium falciparum [25]) of 3.8 nM and an IC50 (Plasmodium falciparum [7]) of 4.9 nM. The IC50 (Plasmodium falciparum [10]) was 3.9 nM, the IC50 (Plasmodium falciparum [15]) was 5.6 nM and the IC50 (Plasmodium falciparum [26]) was 5.7 nM. It also gave a half-life [27] of 3.06 h, a selectivity ratio [28] of 265 and an IC50 (HepG2) of 792 nM. The IC50 (Plasmodium falciparum [17]) was 3 nM, the Activity [18] was “Non-Toxic” and the CLint scaled [20] was 29.7 mL/min/kg. For the same compound, the Activity (Plasmodium yoelii) was “inactive”.
